System: NR1D1
Assay: Immunoblot of NR1D1 protein after shRNA
Type: cell-based, human
Details: after shRNA transfection
Source text: Cell viability—apoptosis assays. […] At least 30 fields were imaged per single experiment. […] Immunoblotting. […] PCR reaction was run using standard conditions.

## NR1D1 shRNA: shRNA, mature sequence GGCATGGTGTTACTGTGTA (shRNA)
  NR1D1 protein levels: decreased protein levels

Reference: patent US20100267803A1, “Regulators Of Fat Metabolism As Anti-Cancer Targets” (The Research Foundation of State University Of New York, priority 2008, published 2010)
